Experimental data published in PubChem BioAssay (NCI).
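Where inhibition never reached the appropriate level, the endpoint shown equals the highest concentration tested. Otherwise, values were interpolated linearly from a five-concentration, 48-hour dose response in 96-well plates. Here, GI50 denotes the concentration required for 50% inhibition of growth. Definition used: TGI = concentration required for complete inhibition of growth.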

Tests used:
Test in all cases: DTP human tumour cell line panel, 48 h
786-0 renal = test system: 786-0 renal
A498 renal = test system: A498 renal
A549 NSCLC = test system: A549 NSCLC
ACHN renal = test system: ACHN renal
BT-549 breast = test system: BT-549 breast
CAKI-1 renal = test system: CAKI-1 renal
CCRF-CEM leukemia = test system: CCRF-CEM leukemia
COLO 205 colon = test system: COLO 205 colon
DU-145 prostate = test system: DU-145 prostate
EKVX NSCLC = test system: EKVX NSCLC
HCC-2998 colon = test system: HCC-2998 colon
HCT-116 colon = test system: HCT-116 colon
HCT-15 colon = test system: HCT-15 colon
HL-60(TB) leukemia = test system: HL-60(TB) leukemia
HOP-62 NSCLC = test system: HOP-62 NSCLC
HOP-92 NSCLC = test system: HOP-92 NSCLC
HS 578T breast = test system: HS 578T breast
HT29 colon = test system: HT29 colon
IGROV1 ovarian = test system: IGROV1 ovarian
K-562 leukemia = test system: K-562 leukemia
KM12 colon = test system: KM12 colon
LOX IMVI melanoma = test system: LOX IMVI melanoma
M14 melanoma = test system: M14 melanoma
MALME-3M melanoma = test system: MALME-3M melanoma
MCF7 breast = test system: MCF7 breast
MDA-MB-231 breast = test system: MDA-MB-231 breast
MDA-MB-435 = test system: MDA-MB-435
MOLT-4 leukemia = test system: MOLT-4 leukemia
NCI-H226 lung = test system: NCI-H226 lung
NCI-H23 lung = test system: NCI-H23 lung
NCI-H460 lung = test system: NCI-H460 lung
NCI-H522 lung = test system: NCI-H522 lung
NCI/ADR-RES ovarian = test system: NCI/ADR-RES ovarian
OVCAR-3 ovarian = test system: OVCAR-3 ovarian
OVCAR-4 ovarian = test system: OVCAR-4 ovarian
OVCAR-5 ovarian = test system: OVCAR-5 ovarian
OVCAR-8 ovarian = test system: OVCAR-8 ovarian
PC-3 prostate = test system: PC-3 prostate
RPMI-8226 leukemia = test system: RPMI-8226 leukemia
RXF 393 renal = test system: RXF 393 renal
SF-268 CNS = test system: SF-268 CNS
SF-295 CNS = test system: SF-295 CNS
SF-539 CNS = test system: SF-539 CNS
SK-MEL-2 melanoma = test system: SK-MEL-2 melanoma
SK-MEL-28 melanoma = test system: SK-MEL-28 melanoma
SK-MEL-5 melanoma = test system: SK-MEL-5 melanoma
SK-OV-3 ovarian = test system: SK-OV-3 ovarian
SN12C renal = test system: SN12C renal
SNB-19 CNS = test system: SNB-19 CNS
SNB-75 CNS = test system: SNB-75 CNS
SR leukemia = test system: SR leukemia
SW-620 colon = test system: SW-620 colon
T-47D breast = test system: T-47D breast
TK-10 renal = test system: TK-10 renal
U251 CNS = test system: U251 CNS
UACC-257 melanoma = test system: UACC-257 melanoma
UACC-62 melanoma = test system: UACC-62 melanoma
UO-31 renal = test system: UO-31 renal

SMILES: C=CCNCCN1C(=O)c2ccc3c4c(ccc(c24)C1=O)C(=O)N(CCNCC=C)C3=O
- GI50 (786-0 renal): 1110 nM
- TGI (786-0 renal): 2800 nM
- GI50 (A498 renal): 1140 nM
- TGI (A498 renal): 3570 nM
- GI50 (A549 NSCLC): 418 nM
- TGI (A549 NSCLC): 1670 nM
- GI50 (ACHN renal): 407 nM
- TGI (ACHN renal): 2520 nM
- GI50 (BT-549 breast): 2910 nM
- TGI (BT-549 breast): 10200 nM
- GI50 (CAKI-1 renal): 630 nM
- TGI (CAKI-1 renal): 1840 nM
- GI50 (CCRF-CEM leukemia): 708 nM
- TGI (CCRF-CEM leukemia): 3440 nM
- GI50 (COLO 205 colon): 160 nM
- TGI (COLO 205 colon): 407 nM
- GI50 (DU-145 prostate): 663 nM
- TGI (DU-145 prostate): 1360 nM
- GI50 (EKVX NSCLC): 557 nM
- TGI (EKVX NSCLC): 1510 nM
- GI50 (HCC-2998 colon): 766 nM
- TGI (HCC-2998 colon): 1550 nM
- GI50 (HCT-116 colon): 500 nM
- TGI (HCT-116 colon): 50000 nM
- GI50 (HCT-15 colon): 457 nM
- TGI (HCT-15 colon): 1660 nM
- GI50 (HL-60(TB) leukemia): 860 nM
- TGI (HL-60(TB) leukemia): 2210 nM
- GI50 (HOP-62 NSCLC): 712 nM
- TGI (HOP-62 NSCLC): 2700 nM
- GI50 (HOP-92 NSCLC): 1810 nM
- TGI (HOP-92 NSCLC): 5560 nM
- GI50 (HS 578T breast): 1760 nM
- TGI (HS 578T breast): 8710 nM
- GI50 (HT29 colon): 193 nM
- TGI (HT29 colon): 769 nM
- GI50 (IGROV1 ovarian): 504 nM
- TGI (IGROV1 ovarian): 1670 nM
- GI50 (K-562 leukemia): 534 nM
- TGI (K-562 leukemia): 3240 nM
- GI50 (KM12 colon): 590 nM
- TGI (KM12 colon): 1820 nM
- GI50 (LOX IMVI melanoma): 728 nM
- TGI (LOX IMVI melanoma): 1770 nM
- GI50 (M14 melanoma): 918 nM
- TGI (M14 melanoma): 1800 nM
- GI50 (MALME-3M melanoma): 343 nM
- TGI (MALME-3M melanoma): 996 nM
- GI50 (MCF7 breast): 225 nM
- TGI (MCF7 breast): 983 nM
- GI50 (MDA-MB-231 breast): 1260 nM
- TGI (MDA-MB-231 breast): 4710 nM
- GI50 (MDA-MB-435): 745 nM
- TGI (MDA-MB-435): 1700 nM
- GI50 (MOLT-4 leukemia): 427 nM
- TGI (MOLT-4 leukemia): 1630 nM
- GI50 (NCI-H226 lung): 493 nM
- TGI (NCI-H226 lung): 1460 nM
- GI50 (NCI-H23 lung): 938 nM
- TGI (NCI-H23 lung): 2100 nM
- GI50 (NCI-H460 lung): 258 nM
- TGI (NCI-H460 lung): 1730 nM
- GI50 (NCI-H522 lung): 616 nM
- TGI (NCI-H522 lung): 1540 nM
- GI50 (NCI/ADR-RES ovarian): 995 nM
- TGI (NCI/ADR-RES ovarian): 5290 nM
- GI50 (OVCAR-3 ovarian): 990 nM
- TGI (OVCAR-3 ovarian): 3270 nM
- GI50 (OVCAR-4 ovarian): 315 nM
- TGI (OVCAR-4 ovarian): 1000 nM
- GI50 (OVCAR-5 ovarian): 1040 nM
- TGI (OVCAR-5 ovarian): 3090 nM
- GI50 (OVCAR-8 ovarian): 421 nM
- TGI (OVCAR-8 ovarian): 4000 nM
- GI50 (PC-3 prostate): 1340 nM
- TGI (PC-3 prostate): 16600 nM
- GI50 (RPMI-8226 leukemia): 953 nM
- TGI (RPMI-8226 leukemia): 4230 nM
- GI50 (RXF 393 renal): 696 nM
- TGI (RXF 393 renal): 1480 nM
- GI50 (SF-268 CNS): 753 nM
- TGI (SF-268 CNS): 3540 nM
- GI50 (SF-295 CNS): 397 nM
- TGI (SF-295 CNS): 1280 nM
- GI50 (SF-539 CNS): 847 nM
- TGI (SF-539 CNS): 1960 nM
- GI50 (SK-MEL-2 melanoma): 891 nM
- TGI (SK-MEL-2 melanoma): 1740 nM
- GI50 (SK-MEL-28 melanoma): 1180 nM
- TGI (SK-MEL-28 melanoma): 2680 nM
- GI50 (SK-MEL-5 melanoma): 584 nM
- TGI (SK-MEL-5 melanoma): 1200 nM
- GI50 (SK-OV-3 ovarian): 1050 nM
- TGI (SK-OV-3 ovarian): 2800 nM
- GI50 (SN12C renal): 489 nM
- TGI (SN12C renal): 1260 nM
- GI50 (SNB-19 CNS): 650 nM
- TGI (SNB-19 CNS): 1350 nM
- GI50 (SNB-75 CNS): 874 nM
- TGI (SNB-75 CNS): 1670 nM
- GI50 (SR leukemia): 811 nM
- TGI (SR leukemia): 2920 nM
- GI50 (SW-620 colon): 402 nM
- TGI (SW-620 colon): 1630 nM
- GI50 (T-47D breast): 1200 nM
- TGI (T-47D breast): 2650 nM
- GI50 (TK-10 renal): 1110 nM
- TGI (TK-10 renal): 3430 nM
- GI50 (U251 CNS): 526 nM
- TGI (U251 CNS): 1260 nM
- GI50 (UACC-257 melanoma): 786 nM
- TGI (UACC-257 melanoma): 1490 nM
- GI50 (UACC-62 melanoma): 895 nM
- TGI (UACC-62 melanoma): 1680 nM
- GI50 (UO-31 renal): 716 nM
- TGI (UO-31 renal): 1690 nM

SMILES: Cn1ccnc1Sc1ccc(/C=N\NC(=O)c2cccc(F)c2)cc1[N+](=O)[O-]
- TGI (786-0 renal): > 100000 nM
- TGI (A498 renal): 65700 nM
- TGI (A549 NSCLC): > 100000 nM
- TGI (ACHN renal): > 100000 nM
- TGI (BT-549 breast): > 100000 nM
- TGI (CAKI-1 renal): > 100000 nM
- TGI (CCRF-CEM leukemia): > 100000 nM
- TGI (COLO 205 colon): > 100000 nM
- TGI (DU-145 prostate): > 100000 nM
- TGI (EKVX NSCLC): > 100000 nM
- TGI (HCC-2998 colon): > 100000 nM
- TGI (HCT-116 colon): > 100000 nM
- TGI (HCT-15 colon): > 100000 nM
- TGI (HL-60(TB) leukemia): > 100000 nM
- TGI (HOP-62 NSCLC): > 100000 nM
- TGI (HOP-92 NSCLC): 63700 nM
- TGI (HS 578T breast): 70600 nM
- TGI (HT29 colon): > 100000 nM
- TGI (IGROV1 ovarian): 53000 nM
- TGI (K-562 leukemia): > 100000 nM
- TGI (KM12 colon): > 100000 nM
- TGI (LOX IMVI melanoma): > 100000 nM
- TGI (M14 melanoma): > 100000 nM
- TGI (MALME-3M melanoma): > 100000 nM
- TGI (MCF7 breast): 91500 nM
- TGI (MDA-MB-231 breast): > 100000 nM
- TGI (MDA-MB-435): > 100000 nM
- TGI (MOLT-4 leukemia): > 100000 nM
- TGI (NCI-H226 lung): > 100000 nM
- TGI (NCI-H23 lung): > 100000 nM
- TGI (NCI-H460 lung): > 100000 nM
- TGI (NCI-H522 lung): 72100 nM
- TGI (NCI/ADR-RES ovarian): > 100000 nM
- TGI (OVCAR-3 ovarian): > 100000 nM
- TGI (OVCAR-4 ovarian): > 100000 nM
- TGI (OVCAR-5 ovarian): > 100000 nM
- TGI (OVCAR-8 ovarian): 63500 nM
- TGI (PC-3 prostate): 63200 nM
- TGI (RPMI-8226 leukemia): > 100000 nM
- TGI (RXF 393 renal): 94300 nM
- TGI (SF-268 CNS): 53900 nM
- TGI (SF-295 CNS): > 100000 nM
- TGI (SF-539 CNS): 66400 nM
- TGI (SK-MEL-2 melanoma): > 100000 nM
- TGI (SK-MEL-28 melanoma): > 100000 nM
- TGI (SK-MEL-5 melanoma): > 100000 nM
- TGI (SK-OV-3 ovarian): 89800 nM
- TGI (SN12C renal): > 100000 nM
- TGI (SNB-19 CNS): 77100 nM
- TGI (SNB-75 CNS): 59500 nM
- TGI (SR leukemia): > 100000 nM
- TGI (SW-620 colon): > 100000 nM
- TGI (T-47D breast): > 100000 nM
- TGI (TK-10 renal): > 100000 nM
- TGI (U251 CNS): 43700 nM
- TGI (UACC-257 melanoma): > 100000 nM
- TGI (UACC-62 melanoma): > 100000 nM
- TGI (UO-31 renal): > 100000 nM
